One data set relates to Bacillus subtilis. Kind of data set: Antibacterial activity against Bacillus subtilis assessed as inhibition of bacterial growth incubated for 48 hrs by liquid microculture method. In kind it is functional.
A further data set concerns Kocuria rhizophila. Kind of data set: Antibacterial activity against Kocuria rhizophila assessed as inhibition of bacterial growth incubated for 48 hrs by liquid microculture method. In kind it is functional.
The nature of data set [1]: Antimigratory activity against human EC17 cells assessed as inhibition of cell migration incubated for 12 hrs by microscopic analysis. Format: functional, cell-based. The conditions noted are these: EC17, 12 h.
The nature of data set [2]: Cytotoxicity against human EC17 cells at 0.18 to 18 uM incubated for 12 hrs. In kind it is toxicity, cell-based. The following applies: ec17, 12 h, dose 0.18-18 µM.
The next data set relates to Trypanosoma cruzi. As to the kind of experiment: Antitrypanosomal activity against Trypanosoma cruzi epimastigotes assessed as parasite growth inhibition measured after 24 hrs by CellTiter-glo luminescence assay. In kind it is functional, organism-based. Background: Cellular ATP, detected with luciferase, serves as a proxy for viable cell number.
Data set [3] in a line: Cytotoxicity against rat 3Y1 cells assessed as cell growth inhibition incubated for 84 hrs by MTT assay. Format: toxicity, cell-based. On the technique in general: Tetrazolium assays rely on reduction of a dye to a coloured formazan, in cell work by metabolically active cells.
Data set [4] can be described thus: Selectivity ratio of GI50 for cytotoxicity against rat 3Y1 cells to IC50 for antitrypanosomal activity against Trypanosoma cruzi epimastigotes. In kind it is toxicity, cell-based.

Molecules are shown by their SMILES. In brackets after ≈: the same amount, converted by molar mass.

As for `C/C=C(\C)[C@@H](O)[C@H](C)[C@H](O)C/C=C(C)/C=C(\C)C/C(C)=C/C/C=C(\C)[C@@H](O)[C@@H](C)[C@H]1CC[C@H](CC)C(=O)O1`, the MIC in the data set on Bacillus subtilis and in the data set on Kocuria rhizophila was 100 µg/mL (≈ 188 µM) each time. For the same compound, the IC50 (usually the concentration needed to halve the response being measured) worked out at 8.3 µM in data set [1] and 18 µM with Trypanosoma cruzi. Besides, the Activity entry in data set [2] is “Non-Toxic”. The GI50 (usually the concentration giving 50% growth inhibition) at 84 h in data set [3] was found to be 3.8 µM. Moreover, the selectivity ratio in data set [4] stood at 0.22.
With `C/C=C(\C)[C@@H](O)[C@H](C)[C@H](O)C/C=C(C)/C=C(\C)C/C(C)=C/C/C=C(\C)[C@@H](O)[C@@H](C)[C@H]1CC[C@H](CCC)C(=O)O1`, the MIC in the data set with Bacillus subtilis and in the data set on Kocuria rhizophila was 100 µg/mL (≈ 184 µM) in each case. Moreover, the half-maximal inhibitory concentration (IC50) is 11 µM in data set [1] and 6.4 µM in the data set with Trypanosoma cruzi. In data set [2], the Activity result was “Non-Toxic”. Also, in data set [3], the GI50 at 84 h turned out to be 31 µM. Further, the selectivity ratio in data set [4] turned out to be 4.9.
With `C/C=C(\C)[C@@H](O)[C@H](C)[C@H](O)C/C=C(C)/C=C(\C)C/C(C)=C/C/C=C(\C)[C@@H](O)[C@@H](C)[C@H]1CC[C@H](CCCC)C(=O)O1`, the MIC in the data set on Bacillus subtilis and in the data set on Kocuria rhizophila was 100 µg/mL (≈ 179 µM) in each case. For the same compound, the IC50 in data set [1] was found to be 15 µM; in the data set on Trypanosoma cruzi it was 12 µM. Moreover, the Activity entry in data set [2] is “Non-Toxic”. In data set [3], the GI50 at 84 h was determined as 32 µM. Also, the selectivity ratio in data set [4] is 2.8.
Regarding `O=C(Cn1ccnc1[N+](=O)[O-])NCc1ccccc1` [BENZNIDAZOLE], in the data set with Trypanosoma cruzi, the IC50 came to 16 µM.

The record behind these values is ChEMBL document CHEMBL5120902, “Phytohabitols A-C, δ-Lactone-Terminated Polyketides from an Actinomycete of the Genus Phytohabitans” (J Nat Prod, 2022).
